Assays:
L3.6pl cells = test: Cell proliferation MTS assay, L3.6pl; assay type: cell-based; details: Homo sapiens, 72 h
Description: (§1) Assays of cell proliferation and clonogenicity. Cells were seeded at 2000 cells/well in 96-well plates and treated at 37° C. for 72 h before MTS [3-(4,5-dimethylthiazol-2-yl)-5-(3-carboxymethoxyphenyl)-2-(4-sulfophenyl)-2H- tetrazolium] assay. The proportion of viable cells was normalized to that of untreated cells and expressed as mean±standard error of the mean (n=6). […] Cells were seeded at 1000 cells per 10-cm plate in growth medium overnight and treated at 37° C. for 10 days. At the end of this 10-day period, colonies were fixed with formalin and stained with crystal violet. Colonies with more than 20 cells were counted.

Panc-1 cells = test: Cell proliferation MTS assay, Panc-1; assay type: cell-based; details: Homo sapiens, 72 h
Description: as §1

HPSCs = test: Cell proliferation MTS assay, HPSCs; assay type: cell-based; details: 72 h, read-out: IC50, HPSC proliferation
Description: as §1

Miapaca-2 cells [1] = test: Clonogenicity assay, Miapaca-2; assay type: cell-based, human; details: 3 μM, 10 days, vs no treatment
Description: as §1

Miapaca-2 cells [2] = test: Cell proliferation MTS assay, Miapaca-2; assay type: cell-based; details: Homo sapiens, MIA PaCa-2, 72 h
Description: as §1

[3] = tested on: spontaneous PDAC of KPC-luc mice; test: Survival study in KPC-luc mice; assay type: in vivo; details: KPC-luc mice enrolled at 95 to 100 days of age; CTL 139 days
Description: FIG. 22: Antitumor efficacy of M-CPA/PTX in a transgenic mice model with spontaneous PDAC in the pancreas of KPC-Luc mice. Mice with positive bioluminescence signals were enrolled at 95 to 100 days of age. M-CPA/PTX was given at 5 mg/kg/drug per injection. The treatment schedule was: 3 intravenous injections per week for the first 2 weeks, followed by 2 intraperitoneal injections per week until death or 90 days from the initiation of treatment. Untreated mice were kept as control (CTL). Gemcitabine and abraxane were used as the standard therapies. Gemcitabine was intraperitoneally injected at 100 mg/kg every other day until death. Abraxane was given at 5 mg/kg/injection following the same schedule as M-CPA/PTX.
The genetically engineered mouse model of PDAC (the KPC-luc mouse model) was also used to test for the antitumor efficacy of drug-loaded micelles on tumors in a survival study. […] The mice were assigned into four different groups: (1) mice with untreated […] (control group), (2) mice intravenously injected gemcitabine at 100 mg/kg every other day until death, (3) mice given Abraxane at 5 mg/kg/injection, and (4) M-CPA/PTX given at 5 mg/kg/drug per injection. […]

Structure (SMILES)	IC50 (L3.6pl cells) [µM]	IC50 (Panc-1 cells) [µM]	IC50 (HPSCs) [µM]	reduction of the number of colonies (Miapaca-2 cells [1]) [%]	IC50 (Miapaca-2 cells [2]) [µM]	median survival [3] [days]
CC1=C2C[C@H]3[C@@H](CC=C4C[C@@H](O)CC[C@@]43C)[C@@H]2CC[C@]12O[C@@H]1C[C@H](C)CN[C@H]1[C@H]2C [CPA, cyclopamine]	16 ± 1.5	~163	13.3 ± 1.2	18.2±1.3	10.2 ± 0.1	
CC(=O)O[C@H]1C(=O)[C@@]2(C)[C@H]([C@H](OC(=O)c3ccccc3)[C@]3(O)C[C@H](OC(=O)[C@H](O)[C@@H](NC(=O)c4ccccc4)c4ccccc4)C(C)=C1C3(C)C)[C@]1(OC(C)=O)CO[C@@H]1C[C@@H]2O [PTX, paclitaxel]	0.0014 ± 0.0001	0.0024 ± 0.0004			0.0012 ± 0.0001	
Nc1ccn([C@@H]2O[C@H](CO)[C@@H](O)C2(F)F)c(=O)n1 [gemcitabine]						167
